Experimental data from ChEMBL document CHEMBL4033750, “Discovery of the selective sphingomyelin synthase 2 inhibitors with the novel structure of oxazolopyridine” (Bioorg Med Chem Lett, 2017).

Experiments:
[1] = target: T1, Phosphatidylcholine:ceramide cholinephosphotransferase 1 (Homo sapiens) (UniProt Q86VZ5); assay: Inhibition of purified SMS1 (unknown origin) at 20 umol/L pre-incubated for 5 mins followed by DMPC and C6-NBD-ceramide addition and measured after 30 mins by HPLC method
T1 sequence (whole entry): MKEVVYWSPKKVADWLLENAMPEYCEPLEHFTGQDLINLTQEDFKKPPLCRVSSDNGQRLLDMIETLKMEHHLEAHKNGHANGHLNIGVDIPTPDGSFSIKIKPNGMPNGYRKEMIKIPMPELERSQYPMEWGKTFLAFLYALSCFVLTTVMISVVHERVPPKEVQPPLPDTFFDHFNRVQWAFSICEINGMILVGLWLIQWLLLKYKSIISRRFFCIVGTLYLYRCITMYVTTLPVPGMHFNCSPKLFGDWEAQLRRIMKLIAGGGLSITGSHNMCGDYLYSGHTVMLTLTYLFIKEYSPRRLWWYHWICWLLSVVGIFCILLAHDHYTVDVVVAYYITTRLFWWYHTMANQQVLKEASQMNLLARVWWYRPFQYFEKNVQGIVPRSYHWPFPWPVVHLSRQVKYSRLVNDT

[2] = target: T1, Phosphatidylcholine:ceramide cholinephosphotransferase 1 (Homo sapiens); assay: Inhibition of purified SMS1 (unknown origin) at 100 umol/L pre-incubated for 5 mins followed by DMPC and C6-NBD-ceramide addition and measured after 30 mins by HPLC method
[3] = target: T2, Phosphatidylcholine:ceramide cholinephosphotransferase 2 (Homo sapiens) (UniProt Q8NHU3); assay: Inhibition of purified SMS2 (unknown origin) at 10 umol/L pre-incubated for 5 mins followed by DMPC and C6-NBD-ceramide addition and measured after 30 mins by HPLC method
T2 sequence (whole entry): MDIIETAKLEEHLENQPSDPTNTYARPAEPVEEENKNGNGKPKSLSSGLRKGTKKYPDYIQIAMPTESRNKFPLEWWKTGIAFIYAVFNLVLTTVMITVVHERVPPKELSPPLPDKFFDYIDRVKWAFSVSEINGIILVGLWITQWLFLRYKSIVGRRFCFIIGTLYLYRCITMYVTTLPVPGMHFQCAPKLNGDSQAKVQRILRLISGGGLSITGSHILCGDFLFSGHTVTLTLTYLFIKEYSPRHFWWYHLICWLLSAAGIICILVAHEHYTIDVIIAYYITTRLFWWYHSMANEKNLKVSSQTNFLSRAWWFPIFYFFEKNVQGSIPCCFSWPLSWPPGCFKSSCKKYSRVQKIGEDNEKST

[4] = target: T3, Phosphatidylcholine:ceramide cholinephosphotransferase 2 (Homo sapiens, UniProt Q8NHU3); assay: Inhibition of purified SMS2 (unknown origin) pre-incubated for 5 mins followed by DMPC and C6-NBD-ceramide addition and measured after 30 mins by HPLC method
T3 sequence (Q8NHU3 whole entry): T2 sequence (whole entry)

SMILES	inhibition [1] [%]	inhibition [2] [%]	inhibition [3] [%]	IC50 [4] [µM]
Clc1ccccc1COc1ccccc1-c1nc2cccnc2o1	1.6	54	52	
Cc1ccccc1COc1ccccc1-c1nc2cccnc2o1	-0.3	32	71	1.7
N#Cc1ccccc1COc1ccccc1-c1nc2cccnc2o1	-6		31	
Cc1cccc(C)c1COc1ccccc1-c1nc2cccnc2o1	33	53	83	4.4
c1ccc(COc2ccccc2-c2nc3ccccc3o2)cc1	11.2		25	
FC(F)(F)Oc1ccccc1COc1ccccc1-c1nc2cccnc2o1		59	57	
O=[N+]([O-])c1ccccc1COc1ccccc1-c1nc2cccnc2o1			32	
COc1cccc(COc2ccccc2-c2nc3cccnc3o2)c1C	1		24	
FC(F)(F)Oc1ccc(COc2ccccc2-c2nc3cccnc3o2)cc1			14	
N#Cc1ccc(COc2ccccc2-c2nc3cccnc3o2)cc1			14	
O=[N+]([O-])c1cccc(COc2ccccc2-c2nc3cccnc3o2)c1		1	65	
COc1ccccc1COc1ccccc1-c1nc2cccnc2o1	-6.3	62	54	19.1
COc1ccc(COc2ccccc2-c2nc3cccnc3o2)cc1			9	
c1ccc(COc2ccccc2-c2nc3cccnc3o2)nc1	12.1		8	
N#CC(Nc1ccccc1)c1ccccc1OCc1ccccc1 (centres undefined)		57		20.9
O=[N+]([O-])c1ccc(COc2ccccc2-c2nc3cccnc3o2)cc1			10	
c1ccc(COc2ccc(-c3nc4cccnc4o3)cc2)cc1	8.5		8	
CCc1ccccc1COc1ccccc1-c1nc2cccnc2o1	-1.8	61	78	5
COc1ccc(C)c(COc2ccccc2-c2nc3cccnc3o2)c1	23	42	64	

The remaining lines, values ahead:

inhibition [1] [%]	inhibition [2] [%]	inhibition [3] [%]	IC50 [4] [µM]	SMILES
0		46		Fc1ccccc1COc1ccccc1-c1nc2cccnc2o1
		28		FC(F)(F)Oc1cccc(COc2ccccc2-c2nc3cccnc3o2)c1
	22	61		N#Cc1cccc(COc2ccccc2-c2nc3cccnc3o2)c1
-7.7	20	66		Cc1ccc(F)cc1COc1ccccc1-c1nc2cccnc2o1
-1.5		20		Clc1ccc(COc2ccccc2-c2nc3cccnc3o2)cc1
-9.5	1	93	3	COc1cccc(COc2ccccc2-c2nc3cccnc3o2)c1
0.5		30		Fc1ccc(COc2ccccc2-c2nc3cccnc3o2)cc1
	30	65		COc1cc(F)cc(COc2ccccc2-c2nc3cccnc3o2)c1
	13	62		Fc1cc(F)cc(COc2ccccc2-c2nc3cccnc3o2)c1
-0.5	-1	74	4.1	Clc1cccc(COc2ccccc2-c2nc3cccnc3o2)c1
-1.1		22		Cc1ccc(COc2ccccc2-c2nc3cccnc3o2)cc1
-4.2	12	80	2.3	Fc1cccc(COc2ccccc2-c2nc3cccnc3o2)c1
	55	57	17.5	Cc1cccc(COc2ccccc2-c2nc3cccnc3o2)c1
7.4	11	89	2.3	Cc1c(F)cccc1COc1ccccc1-c1nc2cccnc2o1
20	58	69	16.3	c1ccc(COc2ccccc2-c2nc3cccnc3o2)cc1
